Consider 1 compound from patent US20240050441A1, “COMBINATION THERAPIES FOR THE TREATMENT OF CANCER” (Erasca, Inc., priority 2020, published 2024).

“Also recorded” adds a separate entry of the source.

Format in all cases: cell-based
One experiment concerns ERK1/2 phosphorylation. Description: Western blotting of phosphorylated ERK1/2 in CAL 27 cells. As to conditions: HPV-negative CAL 27 cells; 4 hours of treatment; immunoblot, bands normalized by total ERK. On the procedure:
The cell lines used in the study were obtained from ATCC (CAL 27 #CRL-2095, SCC-15 #CRL-1623, SCC-25 #CRL-1628, SCC-4 #CRL-1624 and SCC-9 #CRL-1629). The cell line, CAL 27 was cultured in DMEM (Gib co #). SCC-4, SCC-15, SCC-25, SCC-9 cell lines was cultured in a 1:1 mixture of DMEM and Ham's F12 medium containing 1.2 g/L sodium bicarbonate, 2.5 mM L-glutamine, 15 mM HEPES and 0.5 mM sodium pyruvate supplemented with 400 ng/ml hydrocortisone, 90%; fetal bovine serum, 10% (Hyclone #SH-30071.03) and Penicillin/Streptomycin (Thermo Fisher #15070-063). The cells were maintained at 37° C./5% CO2. Cells were washed in ice cold PBS (Thermo Fisher Scientific #10010-023) and lysed in RIPA Lysis and Extraction Buffer (Thermo Fisher Scientific #89900) supplemented with Halt Phosphatase and Protease Inhibitor (Thermo Fisher Scientific #78445). […]
Western blotting: Cells were lysed on ice for 10 minutes with Thermo Fisher RIPA lysis buffer with protease and phosphatase inhibitors. […] The supernatant was transferred to pre-chilled microcentrifuge tube and protein concentration of the lysate was measured using BCA method. […]
After 4 hours of treatment, cells were lysed and immunoblotted for phosphorylated ERK1/2. […] The phosphorylated ERK1/2 bands were quantified by using Bio-Rad Image Lab software and normalized by total ERK.
A general note: In western blotting, separated proteins are transferred to a membrane and probed.

The next experiment concerns CAL 27 cells. Description: Cellular proliferation assay (CellTiter-Glo, day 5). The settings on record: Homo sapiens, read-out: The compound of Formula I IC50, compound of Formula I alone. The procedure:
(§1) The cell lines used in the study were obtained from ATCC (CAL 27 #CRL-2095, SCC-15 #CRL-1623, SCC-25 #CRL-1628, SCC-4 #CRL-1624 and SCC-9 #CRL-1629). The cell line, CAL 27 was cultured in DMEM (Gib co #). SCC-4, SCC-15, SCC-25, SCC-9 cell lines was cultured in a 1:1 mixture of DMEM and Ham's F12 medium containing 1.2 g/L sodium bicarbonate, 2.5 mM L-glutamine, 15 mM HEPES and 0.5 mM sodium pyruvate supplemented with 400 ng/ml hydrocortisone, 90%; fetal bovine serum, 10% (Hyclone #SH-30071.03) and Penicillin/Streptomycin (Thermo Fisher #15070-063). The cells were maintained at 37° C./5% CO2. Cells were washed in ice cold PBS (Thermo Fisher Scientific #10010-023) and lysed in RIPA Lysis and Extraction Buffer (Thermo Fisher Scientific #89900) supplemented with Halt Phosphatase and Protease Inhibitor (Thermo Fisher Scientific #78445). The membrane was blocked for non-specific proteins by Bovine Serum Albumin BSA (Cell Signaling Tech #9998). Antibodies for immunoblotting were as follows: phospho-p44/42 ERK1/2 (Cell Signaling Tech #4370), ERK2 antibody (Santa Cruz #sc-1647), anti-mouse IgG HRP-linked antibody (Cell Signaling Tech #7076), and anti-rabbit IgG HRP-linked antibody (Cell Signaling Tech #7074).
(§2) […] HPV-negative head and neck squamous cancer cell lines, CAL 27, SCC-4, SCC-9, SCC-15 and SCC-25 were split onto 96 well plates.
Background: In ATP-based viability assays light output follows the ATP content of the culture.

The test system of the next experiment is SCC-15 cells. The description is as above. The settings on record: Homo sapiens, read-out: The compound of Formula I IC50, compound of Formula I alone. The procedure:
as §1, §2

Another experiment concerns SCC-9 cells. Described as above. As to conditions: Homo sapiens, read-out: The compound of Formula I IC50, compound of Formula I alone. The procedure:
as §1, §2

Another experiment concerns SCC-25 cells. The description is as above. As to conditions: read-out: The compound of Formula I IC50, compound of Formula I alone. The procedure:
as §1, §2

For the compound `COCOC[C@H]1C[C@H]2COc3c(Sc4cnc(N5CCC6(CC5)CO[C@@H](C)[C@H]6N)c(CO)n4)ccnc3N2C1` [The compound of Formula I], the “inhibition of ERK1/2 phosphorylation relative to DMSO treated control cells” value with ERK1/2 phosphorylation is reported as “approximately 50%; also recorded: about 50%”. Also, the IC50 (in general, the midpoint of a concentration-inhibition curve) in the experiment on CAL 27 cells came to 112 nM; with SCC-15 cells it was 1410 nM; in the experiment on SCC-9 cells, 161 nM; with SCC-25 cells it was 8050 nM.
